In patent publication US9540391B2, “Isomannide derivatives as inhibitors of soluble epoxide hydrolase” (SANOFI, priority 2013, dated 2017) one finds IC50 data, which are given here for 30 molecules.

pIC50: −log10 of the molar value. Where a name gives a salt, the structure may show the parent alone.

The test concerns the target T1, recombinant sEH (Homo sapiens, UniProt P34913).
T1 construct: made in house; host or cells: Sf9 insect cells
T1 sequence (P34913 1-555): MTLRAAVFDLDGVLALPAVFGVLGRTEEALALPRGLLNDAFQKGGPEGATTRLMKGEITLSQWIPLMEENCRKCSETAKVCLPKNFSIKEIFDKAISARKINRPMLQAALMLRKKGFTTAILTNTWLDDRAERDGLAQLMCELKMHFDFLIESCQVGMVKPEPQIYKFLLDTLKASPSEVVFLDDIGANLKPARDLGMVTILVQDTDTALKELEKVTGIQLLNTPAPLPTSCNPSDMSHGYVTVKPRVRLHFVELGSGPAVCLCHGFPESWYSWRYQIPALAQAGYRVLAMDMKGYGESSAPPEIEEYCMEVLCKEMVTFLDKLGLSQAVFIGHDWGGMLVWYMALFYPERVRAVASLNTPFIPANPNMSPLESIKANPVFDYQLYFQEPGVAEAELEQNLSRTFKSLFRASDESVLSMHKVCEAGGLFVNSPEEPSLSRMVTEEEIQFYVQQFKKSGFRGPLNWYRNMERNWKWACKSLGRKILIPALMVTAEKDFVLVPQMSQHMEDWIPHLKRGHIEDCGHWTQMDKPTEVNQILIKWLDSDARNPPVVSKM
The test can be described thus: biochemical screening assay for inhibition of soluble epoxide hydrolase (fluorometric, Phome substrate). In outline: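 Reading fluorescence before substrate addition and after completion corrected for autofluorescence. Reaction: 5 μM Phome, 2 nM recombinant human sEH (Sf9-expressed), compound 0.0001–10 μM, 25 mM Hepes with 0.01% albumin, 15 min pre-incubation then 60 min at 30 °C; IC50 derived from % inhibition.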
The term pIC50 denotes the IC50 on a negative log10 scale, so that one unit is a factor of ten. As to `O=C(NC1CCCCC1)N[C@H]1CO[C@H]2[C@@H]1OC[C@@H]2Oc1ccccc1-c1ccccc1` [Example 23, 1-[(3S,3aR,6S,6aS)-6-(Biphenyl-2-yloxy)-hexahydro-furo[3,2-b]furan-3-yl]-3-cyclohexyl-urea], the pIC50 was 9.00. Take `Cc1cc(O[C@H]2CO[C@H]3[C@@H]2OC[C@@H]3NC(=O)NC2CCCCC2)cnc1Cl` [Example 65, 1-[(3S,3aR,6S,6aS)-6-(6-Chloro-5-methyl-pyridin-3-yloxy)-hexahydro-furo[3,2-b]furan-3-yl]-3-cyclohexyl-urea]: the pIC50 was 8.70. As for `O=C(NCCc1cccs1)N[C@H]1CO[C@H]2[C@@H]1OC[C@@H]2C#Cc1ccccc1` [Example 296, 1-((3S,3aR,6S,6aR)-6-Phenylethynyl-hexahydro-furo[3,2-b]furan-3-yl)-3-(2-thiophen-2-yl-ethyl)-urea], the figure is 7.00; as for `Cc1ncccc1OC1COC2C(NC(=O)NC34CC5(C)CC(C)(CC(O)(C5)C3)C4)COC12` [Example 230, 1-((1R,3S,5R,7S)-3-Hydroxy-5,7-dimethyl-adamantan-1-yl)-3-[(3S,3aR,6S,6aS)-6-(2-methyl-pyridin-3-yloxy)-hexahydro-furo[3,2-b]furan-3-yl]-urea], 7.72.

With `O=C(NC1CCCCC1)N[C@H]1CO[C@H]2[C@@H]1OC[C@@H]2/C=C\c1ccccn1` [Example 334, 1-Cyclohexyl-3-[(3S,3aR,6S,6aR)-6-((Z)-2-pyridin-2-yl-vinyl)-hexahydro-furo[3,2-b]furan-3-yl]-urea; trifluoroacetate], the pIC50 is 6.80.

For the molecule `Cc1cc(C)cc(NC(=O)NC2COC3C(C=Cc4ccccc4)COC23)c1` [Example 322, 1-(3,5-Dimethyl-phenyl)-3-[(3S,3aR,6R)-6-((S)-(Z)-styryl)-hexa-hydro-furo[3,2-b]furan-3-yl]-urea], the pIC50 is 8.15. In the case of `Cc1ncccc1OC1COC2C(NC(=O)NCc3ccc(F)cc3)COC12` [Example 180, 1-(4-Fluoro-benzyl)-3-[(3S,3aR,6S,-6aS)-6-(2-methyl-pyridin-3-yloxy)-hexahydro-furo[3,2-b]furan-3-yl]-urea], the pIC50 is 7.26. As for `CC[C@@H](NC(=O)N[C@H]1CO[C@H]2[C@@H]1OC[C@@H]2Oc1ccc(F)cc1)c1ccccc1` [Example 154, 1-[(3S,3aR,6S,6aS)-6-(4-Fluoro-phenoxy)-hexahydro-furo[3,2-b]furan-3-yl]-3-((R)-1-phenyl-propyl)-urea], the figure is 7.29.

Consider `CSc1cccc(NC(=O)N[C@H]2CO[C@H]3[C@@H]2OC[C@@H]3C#Cc2ccsc2)c1` [Example 312, 1-(3-Methylsulfanyl-phenyl)-3-((3S,3aR,6S,6aR)-6-thiophen-3-ylethynyl-hexahydro-furo[3,2-b]furan-3-yl)-urea], for which the pIC50 is 6.97.

With `C[C@H](NC(=O)N[C@H]1CO[C@H]2[C@@H]1OC[C@@H]2Oc1ccc(F)cc1)c1ccccc1` [Example 161, 1-[(3S,3aR,6S,6aS)-6-(4-Fluoro-phenoxy)-hexahydro-furo[3,2-b]furan-3-yl]-3-((S)-1-phenyl-ethyl)-urea], the pIC50 was 7.33. As for `O=C(NC1CCCCC1)N[C@H]1CO[C@H]2[C@@H]1OC[C@@H]2SC1CCCCC1` [Example 12, 1-cyclohexyl-3-((3S,3aR,6S,6aS)-6-cyclohexylsulfanyl-hexahydro-furo[3,2-b]furan-3-yl)-urea], the figure is 9.00; as for `O=C(NCc1ccc(F)cc1)N[C@H]1CO[C@@H]2[C@@H]1OC[C@H]2C#Cc1ccccc1` [Example 288, 1-(4-Fluoro-benzyl)-3-[(3S,3aR,6R)-6-((S)-phenylethynyl)-hexahydro-furo[3,2-b]furan-3-yl]-urea], 6.83; as for `O=C(Nc1ccc(C(F)(F)F)cc1)NC1COC2C(C#Cc3ccsc3)COC12` [Example 308, 1-((3S,3aR,6S,6aR)-6-Thio-phen-3-ylethynyl-hexahydro-furo[3,2-b]furan-3-yl)-3-(4-trifluoromethyl-phenyl)-urea], 7.32. Then `CO[C@H]1COCC[C@H]1NC(=O)N[C@H]1CO[C@H]2[C@@H]1OC[C@@H]2Oc1cccnc1C` [Example 93, (R)-1-((R)-3-methoxy-tetrahydro-pyran-4-yl)-3-[(3S,3aR,6S,6aS)-6-(2-methyl-pyridin-3-yloxy)-hexahydro-furo[3,2-b]furan-3-yl]-urea], with 7.49. With `CC(C)(O)c1cncc(O[C@H]2CO[C@H]3[C@@H]2OC[C@@H]3NC(=O)NC2CCCCC2)c1` [Example 68, 1-cyclohexyl-3-{(3S,3aR,6S,6aS)-6-[5-(1-hydroxy-1-methyl-ethyl)-pyridin-3-yloxy]-hexahydro-furo[3,2-b]furan-3-yl}-urea; hydrochloride], the pIC50 was 8.70.

As to `O=C(NC1CCCCC1)N[C@H]1CO[C@H]2[C@@H]1OC[C@@H]2Oc1ccccc1Cl` [Example 98, 1-[(3S,3aR,6S,6aS)-6-(2-Chloro-phenoxy)-hexahydro-furo[3,2-b]furan-3-yl]-3-cyclohexyl-urea], the pIC50 was 8.70. For `O=C(NC1CCCCC1)NC1COC2C(C#Cc3ccccc3)COC12` [Example 282, 1-Cyclohexyl-3-((3S,3aR,6S,-6aR)-6-phenylethynyl-hexa-hydro-furo[3,2-b]furan-3-yl)-urea], the pIC50 is 7.92. `Cc1ncccc1O[C@H]1CO[C@H]2[C@@H]1OC[C@@H]2NC(=O)NC1CCCCC1(F)F` (stereo partly drawn) [Example 277, 1-(2,2-Difluoro-cyclohexyl)-3-[(3S,3aR,6S,6aS)-6-(2-methyl-pyridin-3-yloxy)-hexahydro-furo[3,2-b]furan-3-yl]-urea]: the pIC50 was 8.70.

With `Cc1ncccc1OC1COC2C(NC(=O)NC3CCCN(C(=O)C(C)C)C3)COC12` [Example 84, 1-(1-Isobutyryl-piperidin-3-yl)-3-[(3S,-3aR,6S,6aS)-6-(2-methyl-pyridin-3-yloxy)-hexahydro-furo[3,2-b]furan-3-yl]-urea], the pIC50 was 7.23.

With `CCc1nc(C)ccc1O[C@H]1CO[C@H]2[C@@H]1OC[C@@H]2NC(=O)NC1CCCCC1` [Example 38, 1-Cyclohexyl-3-[(3S,3aR,6S,6aS)-6-(2-ethyl-6-methyl-pyridin-3-yloxy)-hexahydro-furo[3,2-b]furan-3-yl]-urea], the pIC50 was 9.00. Then `O=C(NC1CCCCC1)N[C@H]1CO[C@H]2[C@@H]1OC[C@@H]2Sc1cnccn1` [Example 55, 1-Cyclohexyl-3-[(3S,3aR,6S,6aS)-6-(pyrazin-2-ylsulfanyl)-hexahydro-furo[3,2-b]furan-3-yl]-urea], with greater than 9.00; and `Cc1ncc(O[C@H]2CO[C@H]3[C@@H]2OC[C@@H]3NC(=O)NC2CCCCC2)cn1` [Example 41, 1-Cyclohexyl-3-[(3S,3aR,6S,6aS)-6-(2-methyl-pyrimidin-5-yloxy)-hexa-hydro-furo[3,2-b]furan-3-yl]-urea], with 7.60.

Regarding `O=C(Nc1ccccc1)NC1COC2C(C=Cc3ccccc3)COC12` [Example 323, 1-Phenyl-3-[(3S,3aR,6R)-6-((S)-(Z)-styryl)-hexahydro-furo[3,2-b]furan-3-yl]-urea], the pIC50 is 6.72. As for `O=C(NC1CCCCC1)N[C@H]1CO[C@H]2[C@@H]1OC[C@@H]2Oc1ccc2c(c1)C(=O)CC2` [Example 118, 1-Cyclohexyl-3-[(3S,3aR,6S,6aS)-6-(3-oxo-indan-5-yloxy)-hexahydro-furo[3,2-b]furan-3-yl]-urea], the figure is 8.52. Then `Cc1ncccc1O[C@H]1CO[C@H]2[C@@H]1OC[C@@H]2NC(=O)NC1C(C)CCCC1C` (stereo partly drawn) [Example 269, 1-(2,6-Dimethyl-cyclohexyl)-3-[(3S,3aR,6S,6aS)-6-(2-methyl-pyridin-3-yloxy)-hexahydro-furo[3,2-b]furan-3-yl]-urea], with 8.70; and `Cc1ncccc1OC1COC2C(NC(=O)NC34CC5CC(CC(O)(C5)C3)C4)COC12` [Example 193, 1-((1R,3S,5R,7S)-3-Hydroxy-adamantan-1-yl)-3-[(3S,3aR,6S,6aS)-6-(2-methyl-pyridin-3-yloxy)-hexahydro-furo[3,2-b]furan-3-yl]-urea], with 7.29; and `Cc1csc(S[C@H]2CO[C@H]3[C@@H]2OC[C@@H]3NC(=O)NC2CCCCC2)n1` [Example 58, 1-Cyclohexyl-3-[(3S,3aR,6S,6aS)-6-(4-methyl-thiazol-2-ylsulfanyl)-hexa-hydro-furo[3,2-b]furan-3-yl]-urea], with 8.70. Then `Cc1ncccc1O[C@H]1CO[C@H]2[C@@H]1OC[C@@H]2NC(=O)N[C@H]1C[C@H]2C[C@@H]([C@@H]1C)C2(C)C` [Example 186, 1-[(3S,3aR,6S,6aS)-6-(2-Methyl-pyridin-3-yloxy)-hexahydro-furo[3,2-b]furan-3-yl]-3-((1S,2S,3S,5R)-2,6,6-trimethyl-bicyclo[3.1.1]hept-3-yl)-urea], with 8.70.

Regarding `O=C(Nc1ccc(OC(F)(F)F)cc1)N[C@H]1CO[C@H]2[C@@H]1OC[C@@H]2C#Cc1ccsc1` [Example 315, 1-((3S,3aR,6S,6aR)-6-Thiophen-3-ylethynyl-hexahydro-furo[3,2-b]furan-3-yl)-3-(4-trifluoromethoxy-phenyl)-urea], the pIC50 is 7.82.

Turning to `O=C(NCCc1ccccc1)N[C@H]1CO[C@@H]2[C@@H](CCc3ccccc3)CO[C@@H]21` [Example 371, 1-Phenethyl-3-((3S,3aR,6S,6aR)-6-phenethyl-hexahydro-furo[3,2-b]furan-3-yl)-urea], the pIC50 was 7.62.
